Where two headings read alike, the source gives them in different places.
What was measured:
[1] = Heart rate and blood pressure at peak exercise and in recovery, with atropine given during exercise; assay type: in vivo, human
Experimental: In experiments performed during development of embodiments of the present invention, the parasympathetic effects on cardiac electrophysiology during the post-exercise recovery period were studied. Subjects underwent upright bicycle exercise testing on two occasions. Continuous 12-lead ECG monitoring was performed using a commercially available system (Quest Exercise Stress System, Burdick, Deerfield Wis.) for a baseline period of 5 minutes prior to exercise. Subjects underwent a 16-minute submaximal exercise protocol on a stationary bicycle with an initial work load of 50 Watts followed by increases to 75 Watts at 4 minutes and 100 Watts at 8 minutes, as tolerated by the patient. Continuous ECG was recorded for up to 45 minutes of recovery. Blood samples for determination of plasma epinephrine and norepinephrine samples were taken during the rest period, at minutes 8 and 15 of exercise, and during the recovery period at 5, 10, 20, 30, and 45 minutes after cessation of exercise. […]

[2] = Atropine test
[3] = European (EMIAT) and Canadian (CAMIAT) post-myocardial infarction studies; cited from earlier work
[4] = atropine test versus baseline test
[5] = peak exercise, iv atropine 0.04 mg/kg from minute 12 of exercise
[6] = recovery 5 min, iv atropine 0.04 mg/kg during exercise
[7] = recovery 10 min, iv atropine 0.04 mg/kg during exercise
[8] = recovery 20 min, iv atropine 0.04 mg/kg during exercise
[9] = recovery 30 min, iv atropine 0.04 mg/kg during exercise

SMILES | change in diastolic blood pressure [1, 4] | change in heart rate [1, 4] | change in systolic blood pressure [1, 4] | Diastolic BP [1, 5] [mmHg] | Systolic BP [1, 5] [mmHg] | Diastolic BP [1, 6] [mmHg] | HEART RATE [1, 6] [bpm] | Systolic BP [1, 6] [mmHg] | Diastolic BP [1, 7] [mmHg] | HEART RATE [1, 7] [bpm] | Systolic BP [1, 7] [mmHg] | Diastolic BP [1, 8] [mmHg] | HEART RATE [1, 8] [bpm] | Systolic BP [1, 8] [mmHg] | Diastolic BP [1, 9] [mmHg] | HEART RATE [1, 9] [bpm] | Systolic BP [1, 9] [mmHg] | ln(NE) mean ([2]; 30th min recovery, N=81) | ln(NE) mean ([2]; rest (before exercise and before atropine), N=90) | effect on total mortality [3]
CN1[C@@H]2CC[C@H]1C[C@@H](OC(=O)C(CO)c1ccccc1)C2 (some centres unmarked) [Atropine, atropine] | no detectable changes | large changes in heart rate | no detectable changes | 83 ± 14 | 162 ± 25 | 78 ± 9 | 110 ± 16 | 122 ± 15 | 78 ± 9 | 106 ± 16 | 120 ± 16 | 78 ± 11 | 102 ± 15 | 118 ± 14 | 79 ± 9 | 99 ± 14 | 117 ± 14 | 6.31 | 6.38 | –
CCCCc1oc2ccccc2c1C(=O)c1cc(I)c(OCCN(CC)CC)c(I)c1 [Amiodarone] | – | – | – | – | – | – | – | – | – | – | – | – | – | – | – | – | – | – | – | has not been shown to have a beneficial effect

— patent US20110190834A1, “DEVICES AND METHODS FOR SUPPRESSION OF SYMPATHOEXCITATION” (priority 2010, published 2011)
